target: T1, PI3Kδ (Homo sapiens, UniProt O00329); assay: PI3-Kinase HTRF assay, PI3Kδ; assay type: biochemical; conditions: bins Greater than 10 μM and Greater than 1 μM to 10 μM; 10 μM ATP, PIP2 at 10 μM
T1 construct: purchased Millipore Corporation 14-604-K
Source text: A PI3-Kinase HTRF® assay kit (cat No. 33-016) purchased from Millipore Corporation was used to screen compounds provided herein. This assay used specific, high affinity binding of the GRPI pleckstrin homology (PH) domain to PIP3, the product of a Class 1A or 1B PI3 Kinase acting on its physiological substrate PIP2. During the detection phase of the assay, a complex was generated between the GST-tagged PH domain and biotinylated short chain PIP3. The biotinylated PIP3 and the GST-tagged PH domain recruited fluorophores (Streptavidin-Allophycocyanin and Europium-labeled anti-GST respectively) to form the fluorescence resonance energy transfer (FRET) architecture, generating a stable time-resolved FRET signal. The FRET complex was disrupted in a competitive manner by non-biotinylated PIP3, a product formed in the PI3 Kinase assay.
PI3 Kinase α, β, γ and δ activity was assayed using the PI3 Kinase HTRF® assay kit (catalogue No. 33-016) purchased from Millipore Corporation. Purified recombinant PI3Kα (catalogue No. 14-602-K), PI3Kβ (catalogue No. 14-603-K), PI3Kγ (catalogue No. 14-558-K) and PI3Kδ (catalogue No. 14-604-K) were obtained from Millipore Corporation. Purified recombinant PI3K enzyme was used to catalyze the phosphorylation of phosphatidylinositol 4,5-bisphosphate (PIP2 at 10 μM) to phosphatidylinositol 3,4,5-trisphosphate (PIP3) in the presence of 10 μM ATP. The assay was carried out in 384-well format and detected using a Perkin Elmer EnVision Xcite Multilabel Reader. Emission ratios were converted into percent inhibitions and imported into GraphPad Prism software. The concentration necessary to achieve inhibition of enzyme activity by 50% (IC50) was calculated using concentrations ranging from 20 μM to 0.1 nM (12-point curve). IC50 values were determined using a nonlinear regression model available in GraphPad Prism 5. […]

T1 sequence (O00329 whole entry): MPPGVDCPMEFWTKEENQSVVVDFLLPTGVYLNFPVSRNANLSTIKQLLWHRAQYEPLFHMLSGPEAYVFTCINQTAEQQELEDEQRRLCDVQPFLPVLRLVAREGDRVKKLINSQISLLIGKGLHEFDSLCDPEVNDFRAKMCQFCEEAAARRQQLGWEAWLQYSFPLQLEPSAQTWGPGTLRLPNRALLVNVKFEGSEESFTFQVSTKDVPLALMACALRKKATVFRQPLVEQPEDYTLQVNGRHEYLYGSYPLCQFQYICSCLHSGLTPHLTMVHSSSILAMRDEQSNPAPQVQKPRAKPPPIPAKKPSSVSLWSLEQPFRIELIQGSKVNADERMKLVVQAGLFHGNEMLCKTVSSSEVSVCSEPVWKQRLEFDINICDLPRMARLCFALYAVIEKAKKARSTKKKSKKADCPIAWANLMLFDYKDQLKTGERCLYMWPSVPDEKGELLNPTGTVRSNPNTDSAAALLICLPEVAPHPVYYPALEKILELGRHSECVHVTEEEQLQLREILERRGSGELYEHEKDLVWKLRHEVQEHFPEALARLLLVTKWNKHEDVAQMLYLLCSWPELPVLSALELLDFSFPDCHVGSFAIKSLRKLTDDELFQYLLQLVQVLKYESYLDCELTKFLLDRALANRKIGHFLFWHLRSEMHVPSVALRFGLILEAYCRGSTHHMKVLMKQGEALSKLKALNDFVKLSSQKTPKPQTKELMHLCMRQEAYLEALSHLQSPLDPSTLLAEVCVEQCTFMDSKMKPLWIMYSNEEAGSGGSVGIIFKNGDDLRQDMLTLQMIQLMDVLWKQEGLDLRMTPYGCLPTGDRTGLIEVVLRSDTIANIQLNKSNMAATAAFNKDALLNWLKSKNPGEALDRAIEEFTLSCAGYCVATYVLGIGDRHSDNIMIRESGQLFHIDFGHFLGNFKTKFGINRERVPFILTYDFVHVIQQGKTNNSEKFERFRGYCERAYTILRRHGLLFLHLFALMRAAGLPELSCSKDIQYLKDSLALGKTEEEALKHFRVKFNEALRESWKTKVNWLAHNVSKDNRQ
T1 sequence (P27986 whole entry partner): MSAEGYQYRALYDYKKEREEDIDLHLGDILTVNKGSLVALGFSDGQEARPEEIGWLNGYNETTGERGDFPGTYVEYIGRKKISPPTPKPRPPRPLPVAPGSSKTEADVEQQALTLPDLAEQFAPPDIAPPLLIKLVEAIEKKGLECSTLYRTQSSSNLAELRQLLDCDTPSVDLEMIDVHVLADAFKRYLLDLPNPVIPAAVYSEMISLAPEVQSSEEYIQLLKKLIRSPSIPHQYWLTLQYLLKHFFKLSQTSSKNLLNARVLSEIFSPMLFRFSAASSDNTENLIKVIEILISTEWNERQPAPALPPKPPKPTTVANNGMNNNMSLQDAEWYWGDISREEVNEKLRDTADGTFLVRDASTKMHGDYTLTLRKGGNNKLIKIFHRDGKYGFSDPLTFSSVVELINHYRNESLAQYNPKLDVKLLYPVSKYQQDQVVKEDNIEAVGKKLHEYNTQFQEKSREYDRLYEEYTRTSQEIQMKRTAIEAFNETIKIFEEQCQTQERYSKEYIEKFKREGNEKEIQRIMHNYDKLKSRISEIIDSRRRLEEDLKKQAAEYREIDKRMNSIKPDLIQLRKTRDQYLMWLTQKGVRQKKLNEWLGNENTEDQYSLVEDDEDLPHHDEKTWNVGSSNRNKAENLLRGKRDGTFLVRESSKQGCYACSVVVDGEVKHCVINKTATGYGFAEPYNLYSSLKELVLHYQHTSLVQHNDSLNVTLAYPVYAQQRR

Structure (SMILES)	IC50 [nM]
C[C@H](Nc1nc(N)ncc1C(=O)N1CCC1)c1cc2cccc(Cl)c2c(=O)n1-c1ccccc1 [Compound 433]	1000 to 10000
C[C@H](Nc1cc(Cl)ncc1C#N)c1cc2cccc(Cl)c2c(=O)n1-c1ccccc1 [Compound 429]	1000 to 10000
CCN(C)C(=O)c1cnc(N)nc1N[C@@H](C)c1cc2cccc(-c3ccnc(OC)c3)c2c(=O)n1-c1ccccc1 [Compound 155]	1000 to 10000

target: T2, PI3Kα (Homo sapiens, UniProt P42336); assay: PI3-Kinase HTRF assay, PI3Kα; assay type: biochemical; conditions: bins Greater than 10 μM and Greater than 1 μM to 10 μM; 10 μM ATP, PIP2 at 10 μM; read-out: IC50 P13Kα
T2 construct: purchased Millipore Corporation 14-602-K
T2 sequence (P42336 whole entry): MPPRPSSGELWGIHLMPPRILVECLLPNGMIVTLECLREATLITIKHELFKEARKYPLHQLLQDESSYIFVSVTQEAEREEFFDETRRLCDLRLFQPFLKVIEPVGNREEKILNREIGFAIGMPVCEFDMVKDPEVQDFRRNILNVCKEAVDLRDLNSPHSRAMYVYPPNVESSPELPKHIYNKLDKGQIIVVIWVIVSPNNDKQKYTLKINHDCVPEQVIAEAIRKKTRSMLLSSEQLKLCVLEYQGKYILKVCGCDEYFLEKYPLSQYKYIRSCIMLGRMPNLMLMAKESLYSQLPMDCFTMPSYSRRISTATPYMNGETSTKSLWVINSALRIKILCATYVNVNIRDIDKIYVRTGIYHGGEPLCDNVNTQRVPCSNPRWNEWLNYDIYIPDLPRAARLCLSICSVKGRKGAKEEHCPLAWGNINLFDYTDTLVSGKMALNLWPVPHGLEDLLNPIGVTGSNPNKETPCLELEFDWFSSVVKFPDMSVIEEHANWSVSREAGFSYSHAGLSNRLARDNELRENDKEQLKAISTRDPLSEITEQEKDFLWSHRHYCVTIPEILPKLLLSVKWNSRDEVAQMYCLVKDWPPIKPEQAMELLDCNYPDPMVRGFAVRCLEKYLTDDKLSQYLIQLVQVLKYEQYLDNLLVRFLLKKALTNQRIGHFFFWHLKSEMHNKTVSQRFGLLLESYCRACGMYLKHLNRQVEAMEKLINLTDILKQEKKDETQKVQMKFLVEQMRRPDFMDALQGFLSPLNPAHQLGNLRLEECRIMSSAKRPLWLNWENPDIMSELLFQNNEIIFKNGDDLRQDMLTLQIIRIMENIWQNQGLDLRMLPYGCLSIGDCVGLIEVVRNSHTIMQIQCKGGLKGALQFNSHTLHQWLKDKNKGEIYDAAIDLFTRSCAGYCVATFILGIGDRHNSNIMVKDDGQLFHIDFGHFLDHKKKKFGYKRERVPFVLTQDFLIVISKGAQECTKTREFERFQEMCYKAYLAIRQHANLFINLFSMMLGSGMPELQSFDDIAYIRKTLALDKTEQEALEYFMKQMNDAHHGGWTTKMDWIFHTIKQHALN
T2 sequence (P27986 whole entry partner): as the sequence (P27986 whole entry partner) above
Summary of the method: (§1)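 Purified recombinant human PI3Kα, β, γ or δ (0.25-0.3 μg/ml) preincubated 15 min at room temperature with compound (2% DMSO) and 10 μM PIP2, then reacted 1 h with 10 μM ATP. PIP3 product detected by competitive HTRF (GST-PH domain/biotin-PIP3); IC50 from 12-point curves, 20 μM to 0.1 nM, by nonlinear regression.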

Structure (SMILES)	IC50 [nM]
CCS(=O)(=O)c1cccc(-c2cnc(N)nc2N[C@@H](C)c2cc3cccc(Cl)c3c(=O)n2-c2ccccc2)c1 [Compound 416]	1000 to 10000
CCOc1nc(-c2cnc(N)nc2N[C@@H](C)c2cc3cccc(-c4cnc(OC)nc4)c3c(=O)n2-c2ccccc2)cs1 [Compound 396]	1000 to 10000
C[C@H](Nc1nc(N)ncc1-c1cccc(N(C)S(C)(=O)=O)c1)c1cc2cccc(Cl)c2c(=O)n1-c1ccccc1 [Compound 408]	1000 to 10000
CNS(=O)(=O)c1cccc(-c2cnc(N)nc2N[C@@H](C)c2cc3cccc(Cl)c3c(=O)n2-c2ccccc2)c1 [Compound 418]	1000 to 10000
C[C@H](Nc1nc(N)ncc1-c1cccc(NS(C)(=O)=O)c1)c1cc2cccc(Cl)c2c(=O)n1-c1ccccc1 [Compound 399]	1000 to 10000
C[C@H](Nc1nc(N)ncc1-c1cccc(S(N)(=O)=O)c1)c1cc2cccc(Cl)c2c(=O)n1-c1ccccc1 [Compound 414]	1000 to 10000
COc1ccc(-c2cnc(N)nc2N[C@@H](C)c2cc3cccc(Cl)c3c(=O)n2-c2ccccc2)cn1 [Compound 383]	1000 to 10000
C[C@H](Nc1nc(N)ncc1C#N)c1cc2cccc(Cl)c2c(=O)n1-c1cccc(C#N)c1 [Compound 285]	1000 to 10000
COc1ncc(-c2cccc3cc([C@H](C)Nc4nc(N)ncc4C#N)n(C(C)C)c(=O)c23)cn1 [Compound 327]	1000 to 10000
C[C@H](Nc1ncncc1-c1cccc(S(=O)(=O)N(C)C)c1)c1cc2cccc(Cl)c2c(=O)n1-c1ccccc1 [Compound 422]	1000 to 10000
C[C@H](Nc1nc(N)ncc1-c1cccc(S(C)(=O)=O)c1)c1cc2cccc(C(F)(F)F)c2c(=O)n1-c1ccccc1 [Compound 428]	1000 to 10000
CC(C)n1c([C@H](C)Nc2ncnc(N)c2C#N)cc2cccc(Cl)c2c1=O [Compound 329]	1000 to 10000
N#Cc1cnc(N)nc1NCc1cc2cccc(Cl)c2c(=O)n1-c1ccccc1 [Compound 241]	1000 to 10000
CC(C)C(=O)c1cnc(N)nc1N[C@@H](C)c1cc2cccc(Cl)c2c(=O)n1-c1ccccc1 [Compound 424]	1000 to 10000

target: T3, PI3Kβ (Homo sapiens, UniProt P42338); assay: PI3-Kinase HTRF assay, PI3Kβ; assay type: biochemical; conditions: bins Greater than 10 μM and Greater than 1 μM to 10 μM; 10 μM ATP, PIP2 at 10 μM
T3 construct: purchased Millipore Corporation 14-603-K
T3 sequence (P42338 whole entry): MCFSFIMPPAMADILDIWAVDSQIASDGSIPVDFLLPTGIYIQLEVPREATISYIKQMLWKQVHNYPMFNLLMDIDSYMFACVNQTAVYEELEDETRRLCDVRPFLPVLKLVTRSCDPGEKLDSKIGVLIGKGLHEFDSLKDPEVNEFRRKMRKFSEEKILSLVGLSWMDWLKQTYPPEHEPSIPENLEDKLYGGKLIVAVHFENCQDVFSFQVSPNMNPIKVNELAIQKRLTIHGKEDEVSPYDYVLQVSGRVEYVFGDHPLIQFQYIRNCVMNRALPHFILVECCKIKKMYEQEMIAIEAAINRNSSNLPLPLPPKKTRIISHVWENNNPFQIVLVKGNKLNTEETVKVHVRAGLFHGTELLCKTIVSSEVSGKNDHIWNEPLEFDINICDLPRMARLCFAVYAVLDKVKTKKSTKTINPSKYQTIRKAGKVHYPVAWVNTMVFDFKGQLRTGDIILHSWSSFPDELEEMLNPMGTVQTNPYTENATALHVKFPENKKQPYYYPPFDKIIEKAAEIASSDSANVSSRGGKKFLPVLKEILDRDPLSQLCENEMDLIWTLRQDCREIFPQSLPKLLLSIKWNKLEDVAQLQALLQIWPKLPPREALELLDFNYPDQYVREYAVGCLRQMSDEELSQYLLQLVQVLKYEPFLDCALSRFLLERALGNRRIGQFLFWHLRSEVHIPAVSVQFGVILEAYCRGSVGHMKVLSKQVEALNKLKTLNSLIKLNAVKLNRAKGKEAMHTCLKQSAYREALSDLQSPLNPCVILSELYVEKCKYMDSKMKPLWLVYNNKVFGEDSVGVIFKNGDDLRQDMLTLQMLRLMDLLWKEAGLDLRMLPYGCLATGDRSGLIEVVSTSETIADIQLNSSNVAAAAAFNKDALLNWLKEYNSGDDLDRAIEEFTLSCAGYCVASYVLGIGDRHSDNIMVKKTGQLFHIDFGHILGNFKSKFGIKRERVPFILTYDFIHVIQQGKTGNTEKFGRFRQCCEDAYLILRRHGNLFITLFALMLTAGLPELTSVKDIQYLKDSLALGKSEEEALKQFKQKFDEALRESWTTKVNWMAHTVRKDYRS
T3 sequence (P27986 whole entry partner): as the sequence (P27986 whole entry partner) above
Summary of the method: as §1

Structure (SMILES)	IC50 [nM]
CCOc1nc(-c2cnc(N)nc2N[C@@H](C)c2cc3cccc(-c4cnc(OC)nc4)c3c(=O)n2-c2ccccc2)cs1 [Compound 396]	1000 to 10000
C[C@H](Nc1nc(N)ncc1-c1cccc(N(C)S(C)(=O)=O)c1)c1cc2cccc(Cl)c2c(=O)n1-c1ccccc1 [Compound 408]	1000 to 10000
C[C@H](Nc1nc(N)ncc1-c1cccc(NS(C)(=O)=O)c1)c1cc2cccc(Cl)c2c(=O)n1-c1ccccc1 [Compound 399]	1000 to 10000
C[C@H](Nc1nc(N)ncc1-c1cccc(S(C)(=O)=O)c1)c1cc2cccc(C(F)(F)F)c2c(=O)n1-c1ccccc1 [Compound 428]	1000 to 10000
CC(C)n1c([C@H](C)Nc2ncnc(N)c2C#N)cc2cccc(Cl)c2c1=O [Compound 329]	1000 to 10000
N#Cc1cnc(N)nc1NCc1cc2cccc(Cl)c2c(=O)n1-c1ccccc1 [Compound 241]	1000 to 10000

system: phospho-AKT in RAJI cells (PI3Kδ); assay: PI3Kδ selective assay, phospho-AKT in RAJI cells; assay type: cell-based; conditions: RAJI cells stimulated with anti-human IgM; read-out: IC50 for phospho-AKT, RAJI cell model
Source text: A compound's ability in selectively inhibiting PI3Kδ can be assessed using RAJI cells, i.e., B lymphocyte cells derived from lymphoma patients. Briefly, serum-starved RAJI cells are stimulated with anti-human IgM, thereby causing signaling through the B-cell receptors, as described in, for example, He et al., Leukemia Research (2009) 33: 798-802. B-cell receptor signaling is important for the activation, differentiation, and survival of B cells and certain B-cell derived cancers. Reduction of phospho-AKT is indicative of compounds that may inhibit B-cell proliferation and function in certain diseases. By monitoring the reduction of phospho-AKT in stimulated RAJI cells (using for example, phospho-AKT antibodies), a compound's potential efficacy in selectively inhibiting PI3Kδ can be assessed.

Structure (SMILES)	IC50 [nM]
CCS(=O)(=O)c1cccc(-c2cnc(N)nc2N[C@@H](C)c2cc3cccc(Cl)c3c(=O)n2-c2ccccc2)c1 [Compound 416]	< 100
CCOc1nc(-c2cnc(N)nc2N[C@@H](C)c2cc3cccc(-c4cnc(OC)nc4)c3c(=O)n2-c2ccccc2)cs1 [Compound 396]	< 100
C[C@H](Nc1nc(N)ncc1-c1cccc(N(C)S(C)(=O)=O)c1)c1cc2cccc(Cl)c2c(=O)n1-c1ccccc1 [Compound 408]	< 100
CNS(=O)(=O)c1cccc(-c2cnc(N)nc2N[C@@H](C)c2cc3cccc(Cl)c3c(=O)n2-c2ccccc2)c1 [Compound 418]	< 100
C[C@H](Nc1nc(N)ncc1-c1cccc(NS(C)(=O)=O)c1)c1cc2cccc(Cl)c2c(=O)n1-c1ccccc1 [Compound 399]	< 100
C[C@H](Nc1nc(N)ncc1-c1cccc(S(N)(=O)=O)c1)c1cc2cccc(Cl)c2c(=O)n1-c1ccccc1 [Compound 414]	< 100
COc1ccc(-c2cnc(N)nc2N[C@@H](C)c2cc3cccc(Cl)c3c(=O)n2-c2ccccc2)cn1 [Compound 383]	< 100
C[C@H](Nc1nc(N)ncc1C#N)c1cc2cccc(Cl)c2c(=O)n1-c1cccc(C#N)c1 [Compound 285]	< 100
COc1ncc(-c2cccc3cc([C@H](C)Nc4nc(N)ncc4C#N)n(C(C)C)c(=O)c23)cn1 [Compound 327]	< 100
C[C@H](Nc1ncncc1-c1cccc(S(=O)(=O)N(C)C)c1)c1cc2cccc(Cl)c2c(=O)n1-c1ccccc1 [Compound 422]	< 100
C[C@H](Nc1nc(N)ncc1-c1cccc(S(C)(=O)=O)c1)c1cc2cccc(C(F)(F)F)c2c(=O)n1-c1ccccc1 [Compound 428]	< 100
CC(C)n1c([C@H](C)Nc2ncnc(N)c2C#N)cc2cccc(Cl)c2c1=O [Compound 329]	< 100
N#Cc1cnc(N)nc1NCc1cc2cccc(Cl)c2c(=O)n1-c1ccccc1 [Compound 241]	< 100
CC(C)C(=O)c1cnc(N)nc1N[C@@H](C)c1cc2cccc(Cl)c2c(=O)n1-c1ccccc1 [Compound 424]	< 100

system: phospho-AKT in RAW 264.7 cells (PI3Kγ); assay: PI3Kγ selective assay, phospho-AKT in RAW 264.7 cells; assay type: cell-based; conditions: Mus musculus, RAW264.7; stimulated with C5a; ranges less than 100 nM and between 100 nM and 1 μM (given as 100-1000); read-out: IC50 for phospho-AKT, RAW 264.7 cell model
Source text: A compound's ability in selectively inhibiting PI3Kγ can be assessed using RAW264.7 macrophages. Briefly, serum-starved PAW264.7 cells are stimulated with a known GPCR agonist C5a. (See, e.g., Camps et al., Nature Medicine (2005) 11(9): 936-943). Cells can be treated with test compounds prior to, simultaneously with, or subsequent to the stimulation by C5a. RAW 264.7 cells respond to the complement component fragment C5a through activation of the C5a receptor, and the C5a receptor activates macrophages and induces cell migration. Test compounds' ability to inhibit C5a-mediated AKT phosphorylation is indicative of selective inhibition of PI3Kγ. Thus, by monitoring the reduction of phospho-AKT in stimulated RAW 264.7 cells (using for example, phospho-AKT antibodies), a compound's potential efficacy in selectively inhibiting PI3Kγ can be assessed.

Structure (SMILES)	IC50 [nM]
CCS(=O)(=O)c1cccc(-c2cnc(N)nc2N[C@@H](C)c2cc3cccc(Cl)c3c(=O)n2-c2ccccc2)c1 [Compound 416]	< 100
CCOc1nc(-c2cnc(N)nc2N[C@@H](C)c2cc3cccc(-c4cnc(OC)nc4)c3c(=O)n2-c2ccccc2)cs1 [Compound 396]	100 to 1000
C[C@H](Nc1nc(N)ncc1-c1cccc(N(C)S(C)(=O)=O)c1)c1cc2cccc(Cl)c2c(=O)n1-c1ccccc1 [Compound 408]	< 100
CNS(=O)(=O)c1cccc(-c2cnc(N)nc2N[C@@H](C)c2cc3cccc(Cl)c3c(=O)n2-c2ccccc2)c1 [Compound 418]	< 100
C[C@H](Nc1nc(N)ncc1-c1cccc(NS(C)(=O)=O)c1)c1cc2cccc(Cl)c2c(=O)n1-c1ccccc1 [Compound 399]	< 100
C[C@H](Nc1nc(N)ncc1-c1cccc(S(N)(=O)=O)c1)c1cc2cccc(Cl)c2c(=O)n1-c1ccccc1 [Compound 414]	< 100
COc1ccc(-c2cnc(N)nc2N[C@@H](C)c2cc3cccc(Cl)c3c(=O)n2-c2ccccc2)cn1 [Compound 383]	< 100
C[C@H](Nc1nc(N)ncc1C#N)c1cc2cccc(Cl)c2c(=O)n1-c1cccc(C#N)c1 [Compound 285]	< 100
COc1ncc(-c2cccc3cc([C@H](C)Nc4nc(N)ncc4C#N)n(C(C)C)c(=O)c23)cn1 [Compound 327]	100 to 1000
C[C@H](Nc1ncncc1-c1cccc(S(=O)(=O)N(C)C)c1)c1cc2cccc(Cl)c2c(=O)n1-c1ccccc1 [Compound 422]	< 100
C[C@H](Nc1nc(N)ncc1-c1cccc(S(C)(=O)=O)c1)c1cc2cccc(C(F)(F)F)c2c(=O)n1-c1ccccc1 [Compound 428]	< 100
CC(C)n1c([C@H](C)Nc2ncnc(N)c2C#N)cc2cccc(Cl)c2c1=O [Compound 329]	100 to 1000
N#Cc1cnc(N)nc1NCc1cc2cccc(Cl)c2c(=O)n1-c1ccccc1 [Compound 241]	< 100
CC(C)C(=O)c1cnc(N)nc1N[C@@H](C)c1cc2cccc(Cl)c2c(=O)n1-c1ccccc1 [Compound 424]	100 to 1000
